Experimental data: patent US20090318446A1, “4-(1H-Indol-3-yl)-Pyrimidin-2-Ylamine Derivatives and Their Use in Therapy” (Cyclacel Limited, priority 2005, published 2009)
Where two headings read alike, the source gives them in different places.

Legend:
Format in all cases: biochemical
Flt-3 = target: T1, Flt-3 (Homo sapiens, UniProt P36888); test: Flt3 kinase assay
T1 construct: purchased Upstate, Dundee, UK
T1 sequence (P36888 564-993 limits assumed): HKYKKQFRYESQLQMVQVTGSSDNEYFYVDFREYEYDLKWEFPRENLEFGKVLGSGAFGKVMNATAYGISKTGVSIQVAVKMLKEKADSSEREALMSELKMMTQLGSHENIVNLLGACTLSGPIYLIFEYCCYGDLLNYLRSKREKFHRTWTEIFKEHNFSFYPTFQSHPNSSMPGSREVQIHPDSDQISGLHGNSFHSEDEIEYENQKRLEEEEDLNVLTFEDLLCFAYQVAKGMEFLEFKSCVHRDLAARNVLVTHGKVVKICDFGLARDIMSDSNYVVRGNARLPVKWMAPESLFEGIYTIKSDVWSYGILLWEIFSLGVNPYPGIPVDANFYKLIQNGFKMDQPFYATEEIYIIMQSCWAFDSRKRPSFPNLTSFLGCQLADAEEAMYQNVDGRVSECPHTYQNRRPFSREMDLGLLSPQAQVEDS
Method: (§1) This was achieved by measurement of incorporation of radioactive phosphate from ATP into myelin basic protein (MBP) substrate, upon phosphorylation by commercially obtained Flt-3 Upstate, Dundee, UK). Assays were performed using 96-well plates and appropriate assay buffers (20 mM Tris, 25 mM β-glycerophosphate, 5 mM EGTA, 1 mM DTT, 1 mM sodium vanadate, pH 7.5), into which were added 5 ng of active enzyme with 0.4 mg/ml substrate (MBP). The reactions were initiated by addition of MgATP mix (15 mM MgCl2+100 μM ATP with 15-25 kBq per well of [γ-^32P]-ATP) and mixtures incubated for 30 min at 30° C. Reactions were stopped by addition of an equal volume of 75 mM aq orthophosphoric acid, followed by filtration through p81 filterplates (Whatman Polyfiltronics, Kent, UK). After washing 4 times with 75 mM aq orthophosphoric acid, plates were dried, scintillant added and incorporated radioactivity measured in a scintillation counter (TopCount, Packard Instruments, Pangbourne, Berks, UK). Compounds for kinase assay were made up as 10 mM stocks in DMSO and diluted into 10% DMSO in assay buffer. Data was analysed using curve-fitting software (XLfit version 4.0.2, IDBS, Guildford, Surrey, UK) to determine IC50 values (concentration of test compound which inhibits kinase activity by 50%).

CDK2/cyclin E = CDK2/cyclin E (Homo sapiens, UniProt P24941); test: Kinase assay CDK2/cyclin E
Method: The compounds from the examples above were investigated for their ability to inhibit the enzymatic activity of various protein kinases. This was achieved by measurement of incorporation of radioactive phosphate from ATP into appropriate polypeptide substrates. Recombinant protein kinases and kinase complexes were produced or obtained commercially. Assays were performed using 96-well plates and appropriate assay buffers (typically 25 mM β-glycerophosphate, 20 mM MOPS, 5 mM EGTA, 1 mM DTT, 1 mM […], pH 7.4), into which were added 2-4 μg of active enzyme with appropriate substrates. The reactions were initiated by addition of Mg/ATP mix (15 mM MgCl2+100 μM ATP with 30-50 kBq per well of [γ-^32P]-ATP) and mixtures incubated as required at 30° C. Reactions were stopped on ice, followed by filtration through p81 filterplates or GF/C filterplates (Whatman Polyfiltronics, Kent, UK). After washing 3 times with 75 mM aq orthophosphoric acid, plates were dried, scintillant added and incorporated radioactivity measured in a scintillation counter (TopCount, Packard Instruments, Pangbourne, Berks, UK). Compounds for kinase assay were made up as 10 mM stocks in DMSO and diluted into 10% DMSO in assay buffer. Data was analysed using curve-fitting software (GraphPad Prism version 3.00 for Windows, GraphPad Software, San Diego Calif. USA) to determine IC50 values (concentration of test compound which inhibits kinase activity by 50%).

aurora-A = target: T2, aurora-A (Homo sapiens, UniProt O14965); test: Aurora-A (human) kinase assay
T2 construct: purchased Upstate, Dundee, UK
T2 sequence (O14965 1-403): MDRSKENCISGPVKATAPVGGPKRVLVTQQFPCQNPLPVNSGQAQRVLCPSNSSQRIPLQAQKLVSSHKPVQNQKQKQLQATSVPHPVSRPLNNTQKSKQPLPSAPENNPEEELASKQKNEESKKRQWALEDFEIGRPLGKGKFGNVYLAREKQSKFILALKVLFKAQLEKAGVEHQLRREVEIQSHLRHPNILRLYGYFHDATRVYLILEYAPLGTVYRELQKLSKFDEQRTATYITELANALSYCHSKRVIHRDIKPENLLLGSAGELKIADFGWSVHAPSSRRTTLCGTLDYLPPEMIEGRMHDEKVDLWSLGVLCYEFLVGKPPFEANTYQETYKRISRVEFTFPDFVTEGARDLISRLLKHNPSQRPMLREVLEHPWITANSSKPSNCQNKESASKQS
Method: as §1, with “into Kemptide substrate (LRRASLG),” for “into myelin basic protein (MBP) substrate,”, “obtained aurora-A (human,” for “obtained Flt-3”, “added 2-5” for “added 5”, “with 500 μM” for “with 0.4 mg/ml”, “substrate (Kemptide).” for “substrate (MBP).”

[1] = Table 2, read-out: Kinase inhibition IC50 FLT3
[2] = Table 3, read-out: Kinase inhibition Flt3
[3] = Table 2, read-out: Kinase inhibition IC50 CDK2E
[4] = Table 3, read-out: Kinase inhibition CDK2E
[5] = Table 2, read-out: Kinase inhibition IC50 Aurora A
[6] = Table 3, values without asterisk, read-out: Kinase inhibition Aurora A

SMILES	IC50 (Flt-3; [1]) [nM]	IC50 (Flt-3; [2]) [nM]	IC50 (CDK2/cyclin E; [3]) [nM]	IC50 (CDK2/cyclin E; [4]) [nM]	IC50 (aurora-A; [5]) [nM]	IC50 (aurora-A; [6]) [nM]
O=[N+]([O-])c1cccc(Nc2nccc(-c3c[nH]c4ccccc34)n2)c1 [Compound 2, [4-(1H-Indol-3-yl)-pyrimidin-2-yl]-(3-nitro-phenyl)-amine]	130	133	2900	2950	270	–
COc1ccc(Nc2nccc(-c3c[nH]c4ccccc34)n2)cn1 [Compound 4, [4-(1H-Indol-3-yl)-pyrimidin-2-yl]-(6-methoxy-pyridin-3-yl)-amine]	150	148	1300	1250	240	–
c1ccc2c(-c3ccnc(Nc4ccc(N5CCOCC5)cc4)n3)c[nH]c2c1 [Compound 5, [4-(1H-Indol-3-yl)-pyrimidin-2-yl]-(4-morpholin-4-yl-phenyl)-amine]	52	51.6	> 10000	–	58	804
CC(=O)N1CCN(c2ccc(Nc3nccc(-c4c[nH]c5ccccc45)n3)cc2)CC1 [Compound 6, 4-(1H-indol-3-yl)-N-(4-acetylpiperazin-1-ylphenyl)pyrimidin-2-amine]	–	13.3	–	4500	–	130
COc1cc(Nc2nccc(-c3c[nH]c4ccccc34)n2)ccc1N1CCOCC1 [Compound 13, 4-(1H-indol-3-yl)-N-(3-methoxyl-4-morpholin-4-ylphenyl)pyrimidin-2-amine]	–	2.4	–	7600	–	112
CC(=O)N1CCN(c2ccc(Nc3nccc(-c4c(C)[nH]c5ccccc45)n3)cc2)CC1 [Compound 22]	–	11	–	5150	–	37.7
CC(=O)N1CCN(c2ccc(Nc3nccc(-c4c[nH]c5c(C)cccc45)n3)cc2)CC1 [Compound 23]	–	33.2	–	2430	–	91.7

Other lines, results leading:

IC50 (Flt-3; [1]) [nM]	IC50 (Flt-3; [2]) [nM]	IC50 (CDK2/cyclin E; [3]) [nM]	IC50 (CDK2/cyclin E; [4]) [nM]	IC50 (aurora-A; [5]) [nM]	IC50 (aurora-A; [6]) [nM]	SMILES
270	274	1200	1170	1100	–	Fc1ccc(Nc2nccc(-c3c[nH]c4ccccc34)n2)cc1 [Compound 3, (4-Fluoro-phenyl)-[4-(1H-indol-3-yl)-pyrimidin-2-yl]-amine]
–	12.7	–	1930	–	221	c1ccc2c(-c3ccnc(Nc4ccc(N5CCNCC5)cc4)n3)c[nH]c2c1 [Compound 7, 4-(1H-indol-3-yl)-N-(4-piperazin-1-ylphenyl)pyrimidin-2-amine]
–	29.8	–	4910	–	277	CC1CN(c2ccc(Nc3nccc(-c4c[nH]c5ccccc45)n3)cc2)CC(C)O1 (centres unmarked) [Compound 9]
–	84.9	–	2350	–	282	CN(C)c1ccc(Nc2nccc(-c3c[nH]c4ccccc34)n2)cc1 [Compound 10, N′-[4-(1H-indol-3-yl)pyrimidin-2-yl]-N,N-dimethylbenzene-1,4-diamine]
–	1.3	–	1820	–	53.4	COc1cc(Nc2nccc(-c3c[nH]c4ccccc34)n2)cc(OC)c1OC [Compound 12, 4-(1H-indol-3-yl)-N-(3,4,5-trimethoxyphenyl)pyrimidin-2-amine]
